# Counter-ions that a name gives are not always drawn.
# Tests used:
# Type in all cases: physicochemical
# [1] = Modulated DSC glass transition temperature; conditions: mDSC, reversing heat flow versus temperature
# Experimental: FIG. 5 is a modulated DSC (mDSC) plot of reversing heat flow versus temperature, illustrating the heat flow for one embodiment of the spray-dried formulation and showing that the glass transition temperature (Tg) for that embodiment is 108.3° C.
# FIG. 10 is an mDSC plot of reversing heat flow versus temperature, illustrating the heat flow for a […] sample of compound I-1, and showing that the glass transition temperature (Tg) for the […] sample is 106.1° C.
# [2] = DVS isotherm, spray-dried formulation versus crystalline compound I-1; conditions: DVS at 25° C.; crystalline compound I-1 compared with the spray-dried dispersion
# Experimental: (§1) FIG. 1 is a dynamic vapor sorption (DVS) plot of percent change in mass versus target relative humidity (RH), illustrating the change in mass of one embodiment of the disclosed spray-dried formulation at 25° C. under various relative humidity conditions. The plot provides two isotherms: 1 is the sorption plot, illustrating the change in mass with increasing relative humidity steps; and 2 is the desorption plot, illustrating the change in mass with decreasing relative humidity steps.
# as §1, with “FIG. 6” for “FIG. 1”, “a DVS” for “a dynamic vapor sorption (DVS)”, “relative humidity,” for “relative humidity (RH),”, “of a crystalline sample of compound I-1” for “of the disclosed spray-dried formulation”
# FIGS. 1-10 provide structural and stability data concerning the spray-dried formulation (FIGS. 1-5) and a crystalline sample of compound I-1 (FIGS. 6-10). FIGS. 1 and 6 provide DVS isotherm plots for the spray-dried formulation and crystalline compound, respectively.
# [3] = Physical and chemical stability of salts of I-18, 1 week (XRPD, HPLC purity); conditions: for Area (%) of HPLC peak RRT 1.00: main peak; for Area (%) of HPLC peak RRT 1.17: peak = parent compound formed by hydrolysis; for Form change: XRPD
# Experimental: The physical and chemical stability of the K salt, Arginine salt, Choline salt and Tris salt were evaluated under conditions of 25° C./60% RH and 40° C./75% RH for 1 week. Each sample was added into 3 mL glass vials, sealed by parafilm with several holes, and kept under tested condition. After one week, samples was taken for XRPD and HPLC purity test.
# [4] = Hygroscopicity evaluation by DVS of salts of I-18; conditions: 25° C., judged from uptake at 80% RH
# Experimental: To investigate the solid form stability as a function of humidity, DVS isotherm plot of the K salt, Arginine salt, Choline salt and Tris salt were collected at 25° C. between 0 and 95% RH.
# [5] = 25° C./60% RH, 1 week, listed as arginine salt
# [6] = 40° C./75% RH, 1 week, listed as arginine salt
# [7] = Initial, listed as arginine salt
compound,measurement,setting,value
"CCO[C@H]1CC[C@H](n2cc(NC(=O)c3csc(-c4cn[nH]c4)n3)c(-c3nc(F)ccc3F)n2)CC1 [I-1, N-(3-(3,6-difluoropyridin-2-yl)-1-((1r,4r)-4-ethoxycyclohexyl)-1H-pyrazol-4-yl)-2-(1H-pyrazol-4-yl)thiazole-4-carboxamide]",glass transition temperature (Tg),[1],106.1 °C
same,change in mass when exposed to higher relative humidity,[2],substantially smaller change in mass
"CCO[C@H]1CC[C@H](n2cc(NC(=O)c3csc(-c4cnn(C(C)OP(=O)(O)O)c4)n3)c(-c3nc(F)ccc3F)n2)CC1 (some centres unmarked) [I-110, 1-(4-(4-((3-(3,6-difluoropyridin-2-yl)-1-((1r,4r)-4-ethoxycyclohexyl)-1H-pyrazol-4-yl)carbamoyl)thiazol-2-yl)-1H-pyrazol-1-yl)ethyl dihydrogen phosphate arginine salt]",Area (%) of HPLC peak RRT 1.13,"[3]; 25° C./60% RH, 1 week",0.06%
same,Area (%) of HPLC peak RRT 0.77,[3]; [5],0.03%
same,Area (%) of HPLC peak RRT 1.35,[3]; [5],0.06%
same,Area (%) of HPLC peak RRT 1.45,[3]; [5],0.50%
same,Area (%) of HPLC peak RRT 1.71,[3]; [5],0.74%
same,Area (%) of HPLC peak RRT 1.73,[3]; [5],0.61%
same,HPLC purity change,[3]; [5],slight purity decrease
same,Area (%) of HPLC peak RRT 1.00,[3]; [5],95.31%
same,Area (%) of HPLC peak RRT 1.17,[3]; [5],2.68%
same,Form change,"[3]; 25° C./60% RH/1 week, listed as Arginine salt",no form change and No
same,Area (%) of HPLC peak RRT 1.13,"[3]; 40° C./75% RH, 1 week",0.06%
same,Area (%) of HPLC peak RRT 0.77,[3]; [6],0.04%
same,Area (%) of HPLC peak RRT 1.35,[3]; [6],0.11%
same,Area (%) of HPLC peak RRT 1.45,[3]; [6],0.47%
same,Area (%) of HPLC peak RRT 1.71,[3]; [6],0.73%
same,Area (%) of HPLC peak RRT 1.73,[3]; [6],0.60%
same,HPLC purity change,[3]; [6],slight purity decrease
same,Area (%) of HPLC peak RRT 1.00,[3]; [6],95.50%
same,Area (%) of HPLC peak RRT 1.17,[3]; [6],2.48%
same,Form change,"[3]; 40° C./75% RH/1 week, listed as Arginine salt",no form change and No
same,Initial purity (area %),"[3]; HPLC, before storage, listed as Arginine salt",95.91 area %
same,Area (%) of HPLC peak RRT 1.35,[3]; Initial,<0.03%
same,Area (%) of HPLC peak RRT 0.77,[3]; [7],<0.03%
same,Area (%) of HPLC peak RRT 1.13,[3]; [7],<0.03%
same,Area (%) of HPLC peak RRT 1.45,[3]; [7],0.44%
same,Area (%) of HPLC peak RRT 1.71,[3]; [7],0.73%
same,Area (%) of HPLC peak RRT 1.73,[3]; [7],<0.53%
same,Area (%) of HPLC peak RRT 1.00,[3]; [7],95.91%
same,Area (%) of HPLC peak RRT 1.17,[3]; [7],2.39%
same,hygroscopicity,[4],slight hygroscopic

# — patent US12441723B2, “Pyrazole compounds, formulations thereof, and a method for using the compounds and/or formulations” (Rigel Pharmaceuticals, Inc., priority 2019, dated 2025)
